Experimental data published in patent publication US20220073883A1, “COMPOSITIONS AND METHODS FOR GENERATION OF HEART FIELD-SPECIFIC PROGENITOR CELLS” (The Johns Hopkins University, priority 2018, published 2022).

Assays:
Type in all cases: cell-based, mouse
[1] = system: ESC-derived cardiac spheroids; experiment: cardiogenesis: cTnT+ cardiomyocytes in cardiac spheroids at day 9 (flow cytometry)
Excerpt: Next, an embryonic stem cell (ESC) line (ESCHcn4-GFP; Tbx1-Cre Ai9) was established from the mice to determine if heart field specification can be recapitulated in a PSC system. It was hypothesized that a 3D multicellular system would better resemble heart field development in vivo, as early development is a highly dynamic process that involves tissue-tissue interactions between multiple cell types. Since CPCs are specified during mid-late gastrulation 7, 8, multicellular 3D spheroids were generated with the PSCs and treated them with various concentrations of Activin A and Bmp4 to determine whether induction of the early mesoderm influences heart field specification (FIGS. 1C and 1D). After 5 days of differentiation (120 h), GFP+ and RFP+ cells started to appear in the spheroids. The spheroids were analyzed for GFP+ and RFP+ cells by fluorescent activated cell sorting (FACS) at day 5.5 (132 h). […] The double positive GFP+/RFP+ cells correlated with the total number of GFP+ and RFP+ cells (FIG. 6J) and were sporadically interspersed within the GFP+ domain (FIG. 6K).
The overall effects on cardiogenesis were evaluated by analyzing the number of cardiomyocytes at day 9 (FIG. 6L).
Mouse ESCs and human iPSCs were maintained and differentiated as previously described^5, 43, 68 Briefly, mESCs were maintained on gelatin-coated dishes in maintenance medium (Glasgow minimum essential medium supplemented with 10% fetal bovine serum and […] Chir99021 and 1 μM PD98059 or 1000 U/ml ESGRO (Millipore, Billerica, Mass.), Glutamax, sodium pyruvate, MEM non-essential amino acids (Thermo Fisher Scientific). For spheroid formation and differentiation, mouse ESCs were plated in IMDM/Ham's F12 (Cellgro) (3:1) supplemented with N2, B27, penicillin/streptomycin, 2 mM GlutaMAX, 0.05% BSA, 5 ng/ml L-ascorbic acid (Sigma-Aldrich) and α-monothioglycerol (MTG; Sigma-Aldrich) at a final density of 100,000 cells/ml to allow spheroid formation. After 48 h spheroids were collected and transferred to ultra-low attachment plastic surface and induced for 40 hours with Activin A, Bmp4, Wnt3A, Wnt5A, Wnt11 (R&D Systems) alone or in combination. Human iPSCs were maintained in Geltrex-coated T25 flasks using Essential 8 medium. For spheroid formation and differentiation, hiPSCs were plated in RPMI plus B27 minus insulin with Bmp4 and CHIR99021 and incubated for 48 h. […]
Mouse embryos (E7.75) were dissected using forceps under a stereomicroscope (Zeiss) and regions of interest were dissociated and harvested using TrypLE. […] Single-cells were analyzed for RFP/GFP expression or sorted using a SH800 Cell sorter (Sony Biotechnologies). Live cells were analyzed for RFP and GFP expression and stained with antibodies targeting for the presence of appropriate markers. […] Data was analyzed using FlowJo software.

[2] = system: ESC-derived cardiac spheroids (Hcn4-GFP; Tbx1-Cre; Ai9); experiment: heart field specification: Hcn4-GFP+ and Tbx1-Cre, RFP+ CPCs in cardiac spheroids by FACS at day 5.5; settings: increasing levels of the factor; day 5.5
Excerpt: Next, an embryonic stem cell (ESC) line (ESCHcn4-GFP; Tbx1-Cre Ai9) was established from the mice to determine if heart field specification can be recapitulated in a PSC system. It was hypothesized that a 3D multicellular system would better resemble heart field development in vivo, as early development is a highly dynamic process that involves tissue-tissue interactions between multiple cell types. Since CPCs are specified during mid-late gastrulation 7, 8, multicellular 3D spheroids were generated with the PSCs and treated them with various concentrations of Activin A and Bmp4 to determine whether induction of the early mesoderm influences heart field specification (FIGS. 1C and 1D).
IPA utilizes an input gene list and a curated database of literature-derived pathways to infer which canonical pathways are most significant to the input data set. The analysis was focused on pathways related to ‘organism growth and development’. […] The effect of Bmp signals was evaluated during heart field specification. In order to minimize the possibility of influencing heart field cells after induction, all of the data were analyzed within 12 hs after the appearance of GFP^+/RFP^+ cells.
(§1) Mouse ESCs and human iPSCs were maintained and differentiated as previously described^5, 43, 68 Briefly, mESCs were maintained on gelatin-coated dishes in maintenance medium (Glasgow minimum essential medium supplemented with 10% fetal bovine serum and […] Chir99021 and 1 μM PD98059 or 1000 U/ml ESGRO (Millipore, Billerica, Mass.), Glutamax, sodium pyruvate, MEM non-essential amino acids (Thermo Fisher Scientific). For spheroid formation and differentiation, mouse ESCs were plated in IMDM/Ham's F12 (Cellgro) (3:1) supplemented with N2, B27, penicillin/streptomycin, 2 mM GlutaMAX, 0.05% BSA, 5 ng/ml L-ascorbic acid (Sigma-Aldrich) and α-monothioglycerol (MTG; Sigma-Aldrich) at a final density of 100,000 cells/ml to allow spheroid formation. After 48 h spheroids were collected and transferred to ultra-low attachment plastic surface and induced for 40 hours with Activin A, Bmp4, Wnt3A, Wnt5A, Wnt11 (R&D Systems) alone or in combination. Human iPSCs were maintained in Geltrex-coated T25 flasks using Essential 8 medium. For spheroid formation and differentiation, hiPSCs were plated in RPMI plus B27 minus insulin with Bmp4 and CHIR99021 and incubated for 48 h. After 48 h media was changed to RPMI plus B27 minus insulin. The hiPSC line used in this study was developed by Dr. Linzhao Cheng, the Johns Hopkins University, and had was generated from a de-identified patient using an approved IRB protocol.
Mouse embryos (E7.75) were dissected using forceps under a stereomicroscope (Zeiss) and regions of interest were dissociated and harvested using TrypLE. Embryoid bodies (EBs) and cells were dissociated and harvested using TrypLE. Single-cells were analyzed for RFP/GFP expression or sorted using a SH800 Cell sorter (Sony Biotechnologies). Live cells were analyzed for RFP and GFP expression and stained with antibodies targeting for the presence of appropriate markers. […] Data was analyzed using FlowJo software.

[3] = system: ESC-derived cardiac spheroids; experiment: qPCR of FHF (tbx5, hcn4) and SHF (tbx1, fgf10) markers in treated spheroids; settings: Bmp4 (1.25 ng/ml) alone
Method: To investigate the crosstalk between Bmp and Wnt signals, the spheroids were treated with Bmp4 and Wnts in combinations and analyzed expression levels of FHF (tbx5, hcn4) and SHF (tbx1, fgf10) markers.
as §1
RNA isolation was performed using either RNeasy Micro Kit (Cat #74004, Qiagen) or […]® PicoPure® RNA Isolation Kit following the manufacturer's instructions, and cDNA was generated using the high-capacity cDNA reverse transcription kit (Applied Biosystems). qPCR reactions were performed using the Taqman (Applied Biosystems) or Sybr Select qPCR mix (Thermo Fisher) with indicated primers. Gene expression levels were normalized to Gapdh. For the clonal cell-fate analysis, single Isl1-Cre RFP+, Cxcr4− and Isl1-Cre RFP^+, Cxcr4^+ cells were sorted at day 5.5 into 384-well plates and allowed to grow and differentiate for 7 days. […] RNA was isolated from 24 wells with colonies from Cxcr4− and Cxcr4+ sorted cells, respectively. Ct values<30 were considered positive. All samples were also analyzed for gapdh to exclude false-positive results.

[4] = system: canonical Wnt activity; experiment: Topflash luciferase assay; settings: Bmp4 (1.25 ng/ml) alone; 88 h of differentiation
Method: To test this, canonical Wnt activity was measured with its readout Topflash.
For Tbx1 and Tbx5 knockdown experiments, Tbx1 and Tbx5 ON-TARGETplus SMARTpool siRNA or scrambled siRNA (Dharmacon/Thermo Fisher Scientic) was used at 5 nM for cell transfection. Cells were transfected with Lipofectamine LTX (Life Technologies) in single-cell suspensions. For TOP-flash luciferase assays, mESCs were transfected with Topflash constructs and Renilla constructs and analyzed as previously described 5.

With “Bmp4: bone morphogenic protein (Bmp) 4, R&D Systems” the “number of cTnT+ cardiomyocytes” value ([1]; 1.25 ng/ml Bmp4, day 9) was > 30%, the “difference in number of cTnT+ cardiomyocytes compared to 0.5 ng/ml Bmp4” value ([1]; 1.25 ng/ml vs 0.5 ng/ml Bmp4, day 9) was > 10 fold and the effect on cardiogenesis ([1]; varying/increasing concentrations, cTnT+ at day 9) was “profound effect”. For the same substance, the “induction of GFP+ cells (FHF)” value [2] was “promoted induction”, the “induction of RFP+ cells (SHF)” value [2] was “promoted induction” and the “expression of FHF markers (tbx5, hcn4)” value [3] was “increased expression”. For the same substance, the “expression of SHF markers (tbx1, fgf10)” value [3] was “increased expression” and the topflash activity [4] was “increased”.
